Literature values, collected in US20160287532A1 (SignPath Pharma Inc., priority 2015, published 2016).
Read-outs that look alike come from different tables or passages of the source.

Legend:
MMP-1 [1] = conditions: 10 μM EGCG, IL-1β stimulated
MMP-13 [2] = conditions: 10 μM EGCG, IL-1β stimulated
COX-2 = conditions: 10 μM EGCG, IL-1β stimulated
IL-6 [3] = conditions: 10 μM EGCG, IL-1β stimulated
MMP-3 [4] = conditions: 10 μM EGCG, IL-1β stimulated
IL-8 [5] = conditions: 10 μM EGCG, IL-1β stimulated
MMP-1 [6] = conditions: treated IVD samples
MMP-3 [7] = conditions: after treatment; decreased from 0.9 ng/mg tissue
IL-2 = conditions: splenic T lymphocytes
TNF-α [8] = conditions: peritoneal macrophages
NF-κB [9] = conditions: IVD cells of patients with acute spinal injury
IL-8 [10] = conditions: 20 μM curcumin
interferon-γ [11] = conditions: viral induced ARDS mouse model
IL-8 [12] = conditions: rats with non-bacterial prostatitis
TIMP-4 = conditions: high concentrations of curcumin
IL-6 [13] = conditions: monocytes, high glucose environment
MMP-3 [14] = conditions: oral, mice; dose dependent manner
[15] = system: pro-inflammatory cytokines; conditions: multiple myeloma cell lines
MCP-1 [16] = conditions: viral induced ARDS mouse model
MMP-3 [17] = system: MMP-3
MMP-2 [18] = conditions: MDA breast cancer cell line
IL-6 [19] = conditions: rheumatoid synovial fibroblasts
[20] = system: viral induced acute respiratory distress syndrome; conditions: viral induced ARDS mouse model
NF-κB [21] = conditions: chondrocytes
interferon-γ [22] = conditions: splenic T lymphocytes
IL-12 = conditions: peritoneal macrophages
TIMP-1 [23] = conditions: high concentrations of curcumin
TNF-α [24] = conditions: rats with non-bacterial prostatitis
MMP-2 [25] = conditions: A549 in vitro
MMP-3 [26] = conditions: equine cartilage explants; dose dependent
IL-8 [27] = conditions: monocytes, high glucose environment
MMP-9 [28] = conditions: MDA breast cancer cell line
IL-1β [29] = system: IL-1β
acute pancreatitis = acute pancreatitis mouse model
collagen type II = conditions: IVD cells of patients with acute spinal injury
MMP-1 [30] = conditions: oral, mice; dose dependent manner
TIMP-3 = conditions: high concentrations of curcumin
TIMP-2 = conditions: high concentrations of curcumin
[31] = system: pro-inflammatory cytokines; conditions: hepatocellular carcinoma cell lines
MMP-3 [32] = conditions: curcumin added to cell culture
COX2 = conditions: chondrocytes
TNF-α [33] = conditions: acute pancreatitis mouse model
MMP-3 [34] = molecular target: T1, MMP-3 (Homo sapiens, UniProt P08254); conditions: IL-1β stimulated chondrocytes
T1 construct: endogenous in cells; host or cells: IL-1β stimulated chondrocytes

MMP-9 [35] = conditions: A549 in vitro
IL-8 [36] = conditions: human articular chondrocytes
MMP-1 [37] = conditions: IL-1β pre-stimulated disc cells
IL-8 [38] = conditions: viral induced ARDS mouse model
IL-8 [39] = conditions: human esophageal epithelial cells
MMP-2 [40] = conditions: MDA-MB-231 cells
MMP-1 [41] = conditions: human astroglioma cells
IL-8 [42] = conditions: monocytes and macrophages
[43] = system: type II collagen-induced arthritis; conditions: oral, mice; dose dependent manner
[44] = if injected intravenously
TNF-α [45] = conditions: monocytes, high glucose environment
IL-1β [46] = conditions: monocytes and macrophages
IL-6 [47] = system: IL-6
MMP-3 [48] = conditions: human astroglioma cells
[49] = system: macrophage inflammatory protein-1α (MIP-1α); conditions: monocytes and macrophages
TNF-α [50] = conditions: Wistar albino rats, experimental acute pancreatitis
MMP-9 [51] = molecular target: T2, MMP-9 (Homo sapiens, UniProt P14780); conditions: helicobacter pylori infected cells; dose dependent
T2 construct: endogenous in cells; host or cells: human gastric epithelial cells infected with Helicobacter pylori

MMP-9 [52] = conditions: human astroglioma cells
MCP-1 [53] = conditions: monocytes, high glucose environment
[54] = system: pro-inflammatory cytokines; conditions: colon carcinoma cell lines
IL-6 [55] = conditions: viral induced ARDS mouse model
SOX9 = conditions: IVD cells of patients with acute spinal injury
IL-6 [56] = conditions: Wistar albino rats, experimental acute pancreatitis
MMP-3 [57] = conditions: helicobacter pylori infected cells; dose dependent
TIMP-1 [58] = conditions: MDA-MB-231 cells
TNF-α [59] = conditions: monocytes and macrophages
[60] = system: monocyte chemoattractant protein-1 (MCP-1); conditions: monocytes and macrophages
[61] = system: pro-inflammatory cytokines; conditions: pancreatic carcinoma cell lines
IL-6 [62] = conditions: rats with non-bacterial prostatitis
MMP-9 [63] = conditions: chondrocytes
IL-6 [64] = conditions: IVD cells pre-treated with IL-1β
MMP-1 [65] = conditions: IVD cells pre-treated with IL-1β
MMP-3 [66] = conditions: IVD cells pre-treated with IL-1β
IL-8 [67] = conditions: IVD cells pre-treated with IL-1β
MMP-13 [68] = conditions: IVD cells pre-treated with IL-1β

T1 sequence (P08254 100-477): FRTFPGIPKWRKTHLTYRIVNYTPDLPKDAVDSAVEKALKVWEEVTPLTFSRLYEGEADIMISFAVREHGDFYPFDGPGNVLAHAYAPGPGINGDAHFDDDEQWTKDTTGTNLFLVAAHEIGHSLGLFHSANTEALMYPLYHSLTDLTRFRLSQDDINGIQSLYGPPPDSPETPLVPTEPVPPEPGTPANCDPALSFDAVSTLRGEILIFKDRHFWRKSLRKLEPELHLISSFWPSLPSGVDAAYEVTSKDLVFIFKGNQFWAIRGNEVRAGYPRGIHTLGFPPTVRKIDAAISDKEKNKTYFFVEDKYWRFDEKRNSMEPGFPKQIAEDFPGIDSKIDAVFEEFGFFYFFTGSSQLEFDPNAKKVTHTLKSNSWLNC
T2 sequence (P14780 94-707): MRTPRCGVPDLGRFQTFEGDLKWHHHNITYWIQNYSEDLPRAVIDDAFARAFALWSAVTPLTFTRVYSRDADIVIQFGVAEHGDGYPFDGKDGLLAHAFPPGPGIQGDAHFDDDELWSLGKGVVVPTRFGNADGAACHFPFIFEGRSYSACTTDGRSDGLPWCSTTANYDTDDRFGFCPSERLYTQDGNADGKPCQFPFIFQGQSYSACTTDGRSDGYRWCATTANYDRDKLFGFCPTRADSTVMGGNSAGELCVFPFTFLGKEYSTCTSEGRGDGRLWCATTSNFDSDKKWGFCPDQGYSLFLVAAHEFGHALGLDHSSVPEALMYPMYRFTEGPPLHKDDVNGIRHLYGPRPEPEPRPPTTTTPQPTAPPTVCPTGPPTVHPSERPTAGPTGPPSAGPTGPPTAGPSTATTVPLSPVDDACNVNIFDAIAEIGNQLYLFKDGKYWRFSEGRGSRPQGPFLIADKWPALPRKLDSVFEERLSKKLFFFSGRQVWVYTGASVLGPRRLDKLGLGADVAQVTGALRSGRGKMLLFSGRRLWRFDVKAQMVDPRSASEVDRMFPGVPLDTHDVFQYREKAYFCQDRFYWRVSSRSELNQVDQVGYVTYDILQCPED

Compound: epigallocatechin 3-gallate [EGCG]
- expression of MMP-1 (MMP-1 [1]): inhibited
- expression of MMP-13 (MMP-13 [2]): inhibited
- expression of COX-2 (COX-2): inhibited
- expression of IL-6 (IL-6 [3]): inhibited
- expression of MMP-3 (MMP-3 [4]): inhibited
- expression of IL-8 (IL-8 [5]): inhibited

Compound: IL-1Ra: recombinant interleukin-1 receptor antagonist
- effect on MMP-1 concentration (MMP-1 [6]): no effect
- concentration of total MMP-3 activity (MMP-3 [7]): 0.35 ng/mg tissue

Compound: COc1cc(/C=C/C(=O)/C=C(O)/C=C/c2ccc(O)c(OC)c2)ccc1O [curcumin, 1,7-bis(4-hydroxy-3-methoxyphenyl)-1,6-heptadiene-3,5-dione]
- expression of IL-2 (IL-2): inhibited
- production of TNF-α (TNF-α [8]): inhibited
- IL-1 induced NF-κB activity (NF-κB [9]): blocked
- IL-8 expression reduced (IL-8 [10]): 50%
- expression of interferon-γ (interferon-γ [11]): reduced
- IL-8 expression (IL-8 [12]): reduced
- TIMP-4 (TIMP-4): up-regulated
- release of IL-6 (IL-6 [13]): markedly reduced
- MMP-3 expression in joints (MMP-3 [14]): suppress
- pro-inflammatory cytokines [15]: suppressed
- expression of MCP-1 (MCP-1 [16]): reduced
- MMP-3 expression reduced (MMP-3 [17]; 10 μM curcumin): 70%
- MMP-3 expression reduced (MMP-3 [17]; 20 μM curcumin): 75%
- MMP-2 (MMP-2 [18]): inhibited
- release of IL-6 (IL-6 [19]): block
- fibrosis [20]: reduction
- inflammation [20]: marked decrease
- IL-1 induced NF-κB activation (NF-κB [21]): decrease
- production of interferon-γ (interferon-γ [22]): inhibited
- expression of IL-12 (IL-12): inhibited
- TIMP-1 (TIMP-1 [23]): up-regulated
- TNF-α expression (TNF-α [24]): reduced
- MMP-2 (MMP-2 [25]): Inhibition
- IL-1β stimulated MMP-3 release (MMP-3 [26]): reduced
- release of IL-8 (IL-8 [27]): markedly reduced
- MMP-9 (MMP-9 [28]): inhibited
- Expression of IL-1β reduced (IL-1β [29]; 10 μM curcumin): 70%
- Expression of IL-1β reduced (IL-1β [29]; 20 μM curcumin): 75%
- pancreatic injury (acute pancreatitis): decreased
- IL-1 inhibition of collagen type II expression (collagen type II): reversed
- MMP-1 expression in joints (MMP-1 [30]): suppress
- TIMP-3 (TIMP-3): up-regulated
- TIMP-2 (TIMP-2): up-regulated
- pro-inflammatory cytokines [31]: suppressed
- MMP-3 (MMP-3 [32]): dose dependent suppression
- COX2 regulation (COX2): down regulation
- TNF-α levels (TNF-α [33]): suppression
- MMP-3 activity (MMP-3 [34]): inhibited
- MMP-9 (MMP-9 [35]): Inhibition
- release of IL-8 (IL-8 [36]): block
- reduction in MMP-1 expression (MMP-1 [37]; 5 μM curcumin): 22%
- reduction in MMP-1 expression (MMP-1 [37]; 10 μM curcumin): 60%
- reduction in MMP-1 expression (MMP-1 [37]; 20 μM curcumin): 78%
- expression of IL-8 (IL-8 [38]): reduced
- release of IL-8 (IL-8 [39]): block
- MMP-2 (MMP-2 [40]): down-regulated
- MMP-1 (MMP-1 [41]): Suppression
- IL-8 release (IL-8 [42]): suppresses
- type II collagen-induced arthritis [43]: suppress
- cardiopathy [44]: QT prolongation
- release of TNF-α (TNF-α [45]): markedly reduced
- IL-1β release (IL-1β [46]): suppresses
- expression of IL-6 decreased (IL-6 [47]; 10 μM curcumin): 50%
- expression of IL-6 decreased (IL-6 [47]; 20 μM curcumin): 70%
- MMP-3 (MMP-3 [48]): Suppression
- MIP-1α release [49]: suppresses
- TNF-α levels (TNF-α [50]): reduced
- MMP-9 activity (MMP-9 [51]): suppressed
- MMP-9 (MMP-9 [52]): Suppression
- release of MCP-1 (MCP-1 [53]): markedly reduced
- pro-inflammatory cytokines [54]: suppressed
- expression of IL-6 (IL-6 [55]): reduced
- IL-1 inhibition of SOX9 expression (SOX9): reversed
- IL-6 levels (IL-6 [56]): reduced
- MMP-3 activity (MMP-3 [57]): suppressed
- TIMP-1 (TIMP-1 [58]): up-regulated
- TNF-α release (TNF-α [59]): suppresses
- MCP-1 release [60]: suppresses
- pro-inflammatory cytokines [61]: suppressed
- IL-6 expression (IL-6 [62]): reduced
- MMP-9 regulation (MMP-9 [63]): down regulation

Compound: Oc1ccc(C=Cc2cc(O)cc(O)c2)cc1 [Resveratrol, resveratrol]
- levels of IL-6 (IL-6 [64]): reduced
- levels of MMP-1 (MMP-1 [65]): reduced
- levels of MMP-3 (MMP-3 [66]): reduced
- levels of IL-8 (IL-8 [67]): reduced
- levels of MMP-13 (MMP-13 [68]): reduced
